Patent publication US10934309B2, “Tricyclic quinone derivative” (Boston Biomedical, Inc., priority 2014, dated 2021)

Key:
Assay type in all cases: cell-based, human
HCT-116 cells [1] = experiment: Proliferation inhibition assay of cancer cells (Test Example 1), HCT-116; details: Homo sapiens, HCT-116, 96 h, HCT-116 cells, cultured for 4 days, Cell Titer-Glo; read-out: IC50 (μM) HCT; concentration for 50% inhibition of cell proliferation (Bulk IC50 value)
Procedure: (§1) HCT-116 cells (derived from human colon adenocarcinoma), HT-29 cells (derived from human colon cancer), and FaDu cells (derived from human hypopharynx cancer) were obtained from American Type Culture Collection (ATCC). […] After cells were seeded at 300-600 cells/well onto black μClear-plate 384 well (Greiner bio-one Cat. No. 781091), a test substance was added such that the final concentration of DMSO is 0.1%, and cultured for 4 days. […] A test shown in Test example 1 was carried out for compounds obtained in the Examples.

FaDu cells [2] = experiment: Proliferation inhibition assay of cancer cells (Test Example 1), FaDu; details: Homo sapiens, FaDu, 96 h, FaDu cells, cultured for 4 days, Cell Titer-Glo; read-out: IC50 (μM) FaDu; concentration for 50% inhibition of cell proliferation (Bulk IC50 value)
Procedure: as §1

HT-29 cells [3] = experiment: Proliferation inhibition assay of cancer cells (Test Example 1), HT-29; details: Homo sapiens, HT-29, 96 h, HT-29 cells, cultured for 4 days, Cell Titer-Glo; read-out: IC50 (μM) HT; concentration for 50% inhibition of cell proliferation (Bulk IC50 value)
Procedure: as §1

HCT-116 cells [4] = experiment: Inhibition assay of cancer cell sphere-forming ability (Test Example 2), HCT-116; details: Homo sapiens, HCT-116, 96 h, HCT-116 cells, Ultra-Low Attachment plate, serum-free DMEM/F12 with B27, EGF, bFGF, insulin, 4 days, Cell Titer-Glo; read-out: IC50 (μM) HCT; concentration for 50% inhibition of cell proliferation (Sphere IC50 value)
Procedure: (§2) HCT-116 cells (derived from human colon adenocarcinoma), HT-29 cells (derived from human colon cancer), FaDu cells (derived from human hypopharynx cancer) were obtained from American Type Culture Collection (ATCC). […] HCT-116 cells, HT-29 cells, and FaDu cells were seeded onto 384 Well Black Clear Bottom Ultra-Low Attachment Microplate (Corning Cat. […] A test substance was added so that the final concentration of DMSO is 0.1%, and then cultured for 4 days. […] A test shown in Test example 2 was carried out for compounds obtained in the Examples.

FaDu cells [5] = experiment: Inhibition assay of cancer cell sphere-forming ability (Test Example 2), FaDu; details: Homo sapiens, FaDu, 96 h, FaDu cells, Ultra-Low Attachment plate, serum-free DMEM/F12 with B27, EGF, bFGF, insulin, 4 days, Cell Titer-Glo; read-out: IC50 (μM) FaDu; concentration for 50% inhibition of cell proliferation (Sphere IC50 value)
Procedure: as §2

HT-29 cells [6] = experiment: Inhibition assay of cancer cell sphere-forming ability (Test Example 2), HT-29; details: Homo sapiens, HT-29, 96 h, HT-29 cells, Ultra-Low Attachment plate, serum-free DMEM/F12 with B27, EGF, bFGF, insulin, 4 days, Cell Titer-Glo; read-out: IC50 (μM) HT; concentration for 50% inhibition of cell proliferation (Sphere IC50 value)
Procedure: as §2

cancer cells [7] = experiment: Inhibition test of cancer cell sphere-forming ability, overall statement on Table 2; details: summary of Table 2
Procedure: HCT-116 cells (derived from human colon adenocarcinoma), HT-29 cells (derived from human colon cancer), FaDu cells (derived from human hypopharynx cancer) were obtained from American Type Culture Collection (ATCC). HCT-116 cells and HT-29 cells were cultured using McCoy's 5a medium containing 10% fetal bovine serum (FBS) and 1% penicillin/streptomycin, and FaDu cells were cultured using MEM medium containing 10% FBS, 1% non-essential amino acid, 1% sodium pyruvate, and 1% penicillin/streptomycin, respectively, at 37° C. in the presence of 5% CO2. HCT-116 cells, HT-29 cells, and FaDu cells were seeded onto 384 Well Black Clear Bottom Ultra-Low Attachment Microplate (Corning Cat. No. 3827) using DMEM/F12 medium containing 2% B27 supplement (GIBCO), 20 ng/mL epidermal growth factor (EGF) (peprotech), 10 ng/mL basic fibroblast growth factor (bFGF) (peprotech), 5 μg/mL insulin (Sigma), and 1% penicillin/streptomycin to be 350-800 cells/well. A test substance was added so that the final concentration of DMSO is 0.1%, and then cultured for 4 days. The number of living cells was then counted using Cell Titer-Glo (registered trademark) Luminescent Cell Viability Assay (Promega) to calculate the concentration for 50% inhibition of cell proliferation of respective test substances (Sphere IC50 value; μM).

cancer cells [8] = experiment: Proliferation inhibition test of cancer cells, overall statement on Table 1; details: summary of Table 1
Procedure: HCT-116 cells (derived from human colon adenocarcinoma), HT-29 cells (derived from human colon cancer), and FaDu cells (derived from human hypopharynx cancer) were obtained from American Type Culture Collection (ATCC). HCT-116 cells and HT-29 cells were cultured using McCoy's 5a medium containing 10% fetal bovine serum (FBS) and 1% penicillin/streptomycin, and FaDu cells were cultured using MEM medium containing 10% FBS, 1% non-essential amino acid, 1% sodium pyruvate, and 1% penicillin/streptomycin, respectively, at 37° C. in the presence of 5% CO2. After cells were seeded at 300-600 cells/well onto black μClear-plate 384 well (Greiner bio-one Cat. No. 781091), a test substance was added such that the final concentration of DMSO is 0.1%, and cultured for 4 days. The number of living cells was then counted using Cell Titer-Glo (Registered trademark) Luminescent Cell Viability Assay (Promega) to calculate a concentration for 50% inhibition of cell proliferation of respective test substances (Bulk IC50 value; μM).

IC50 (HCT-116 cells [1]) [µM] | IC50 (FaDu cells [2]) [µM] | IC50 (HT-29 cells [3]) [µM] | IC50 (HCT-116 cells [4]) [µM] | IC50 (FaDu cells [5]) [µM] | IC50 (HT-29 cells [6]) [µM] | SMILES | effect to inhibit cancer cell sphere-forming ability (in words) (cancer cells [7]) | effect on the inhibition of the proliferation of cancer cells (in words) (cancer cells [8])
0.06 | 0.02 | 0.37 | 0.05 | < 0.01 | 0.06 | CC(O)c1cc2c(s1)C(=O)c1ccncc1C2=O (centres unmarked) [Example 13, 2-(1-hydroxyethyl)thieno[2,3-g]isoquinoline-4,9-dione] | particularly strong effect | 
0.04 | < 0.01 | 0.08 | 0.04 | < 0.01 | 0.06 | CC(O)c1cc2c(o1)C(=O)c1cnccc1C2=O (centres unmarked) [Example 49, 2-(1-hydroxyethyl)furo[3,2-g]isoquinoline-4,9-dione] | particularly strong effect | particularly strong effect
< 0.01 | < 0.01 | 0.05 | 0.04 | < 0.01 | 0.05 | O=C(NCC(F)F)c1cc2c(o1)C(=O)c1ccncc1C2=O [Example 46, N-(2,2-difluoroethyl)-4,9-dioxo-4,9-dihydrofuro[2,3-g]isoquinoline-2-carboxamide] | particularly strong effect | particularly strong effect
< 0.01 | < 0.01 | 0.05 | < 0.01 | < 0.01 | < 0.01 | CC(F)c1cc2c(s1)C(=O)c1ccncc1C2=O (centres unmarked) [Example 30, 2-(1-fluoroethyl)thieno[2,3-g]isoquinoline-4,9-dione] | particularly strong effect | particularly strong effect
0.05 | 0.05 | 0.54 | 0.06 | 0.04 | 0.24 | O=C1c2cnccc2C(=O)c2oc(C(F)F)cc21 [Example 63, 2-(difluoromethyl)furo[2,3-g]isoquinoline-4,9-dione] | particularly strong effect | particularly strong effect
0.09 | 0.02 | 0.45 | 0.17 | < 0.01 | 0.07 | O=C1c2cnccc2C(=O)c2sc(CNCC(F)F)cc21 [Example 26, 2-{[(2,2-difluoroethyl)amino]methyl}thieno[2,3-g]isoquinoline-4,9-dione] | particularly strong effect | 

The next lines start with the molecule.

SMILES | IC50 (HCT-116 cells [1]) [µM] | IC50 (FaDu cells [2]) [µM] | IC50 (HT-29 cells [3]) [µM] | IC50 (HCT-116 cells [4]) [µM] | IC50 (FaDu cells [5]) [µM] | IC50 (HT-29 cells [6]) [µM] | effect to inhibit cancer cell sphere-forming ability (in words) (cancer cells [7]) | effect on the inhibition of the proliferation of cancer cells (in words) (cancer cells [8])
CC(C)(O)c1cc2c(s1)C(=O)c1ccncc1C2=O [Example 15, 2-(2-hydroxypropan-2-yl)thieno[2,3-g]isoquinoline-4,9-dione] | 0.34 | 0.04 | 0.61 | 0.4 | < 0.01 | 0.46 | particularly strong effect | 
CCN(CCOC)Cc1cc2c(s1)C(=O)c1ccncc1C2=O [Example 24, 2-{[ethyl(2-methoxyethyl)amino]methyl}thieno[2,3-g]isoquinoline-4,9-dione] | 0.34 | 0.03 | 0.65 | 0.43 | < 0.01 | 0.18 | particularly strong effect | 
CC(=O)c1cc2c(s1)C(=O)c1cnccc1C2=O [Example 33, 2-acetylthieno[3,2-g]isoquinoline-4,9-dione] | < 0.01 | < 0.01 | 0.09 | 0.02 | < 0.01 | 0.07 | particularly strong effect | particularly strong effect
CC(=O)N1CCN(Cc2cc3c(s2)C(=O)c2ccncc2C3=O)CC1 [Example 27, 2-[(4-acetylpiperazin-1-yl)methyl]thieno[2,3-g]isoquinoline-4,9-dione] | 0.5 | 0.03 | 0.4 | 0.47 | < 0.01 | 0.06 | particularly strong effect | 
O=C1c2cnccc2C(=O)c2sc(C(O)C3CC3)cc21 (centres unmarked) [Example 16, 2-[cyclopropyl(hydroxy)methyl]thieno[2,3-g]isoquinoline-4,9-dione] | 0.06 | < 0.01 | 0.58 | 0.22 | < 0.01 | 0.15 | particularly strong effect | particularly strong effect
O=C1c2ccncc2C(=O)c2c1oc(C(F)F)c2C(=O)N1CCOCC1 [Example 62, 2-(difluoromethyl)-3-(morpholine-4-carbonyl)furo[2,3-g]isoquinoline-4,9-dione] | 0.06 | 0.04 | 0.57 | 0.05 | < 0.01 | 0.04 | particularly strong effect | particularly strong effect
CCc1noc(-c2cc3c(s2)C(=O)c2ccncc2C3=O)n1 [Example 31, 2-(3-ethyl-1,2,4-oxadiazol-5-yl)thieno[2,3-g]isoquinoline-4,9-dione] | 0.04 | < 0.01 | 0.31 | 0.03 | < 0.01 | < 0.01 | particularly strong effect | particularly strong effect
CC(=O)c1cc2c(s1)C(=O)c1cccnc1C2=O [Example 1, 2-acetylthieno[2,3-g]quinoline-4,9-dione] | 0.01 | 0.01 | 0.57 | 0.02 | 0.02 | 0.07 |  | particularly strong effect
O=C1c2cc(C(=O)N3CCOCC3)oc2C(=O)c2sccc21 [Example 55, 2-(morpholin-4-ylcarbonyl)thieno[3,2-f][1]benzofuran-4,8-dione] | 0.05 | 0.06 | 0.58 | 0.04 | 0.01 | 0.04 | particularly strong effect | 
